Tests used:
[1] = Mouse PK Analysis (plasma LC/MS/MS, noncompartmental PK parameters); assay type: in vivo; set-up: AUC(0-t): concentration or dose not given beside the values; details: mouse; mice, oral administration, plasma
Protocol: Compounds 30 and 29 were administered to mice orally. After 6 hours or 24 hours, splenocytes cells were harvested. ITK was evaluated by Western blotting. Plasma concentrations were determined by LC/MS/MS. Plasma samples were protein precipitated by addition of 100 μl of acetonitrile containing 50 ng/ml of internal standard. The resulting mixture was vortexed and centrifuged at 4000 RPM for 5 minutes. An aliquot of the resultant supernatant (75 μl) was added to 75 μl of 0.1% formic acid in water to constitute the final sample for injection. Samples were injected on a Shimadzu Exion LC Binary Gradient AD Pump HLPC system connected to a Sciex QTRAP 6500+ mass spectrometer. Five μl of sample was injected onto a Waters Acquity UPLC BEH C18 column 130A (2.1×30 mm, […]) at 40° C. utilizing a flow rate of 700 μl/minute. Mobile Phase A was 0.1% formic acid in water and mobile phase B was 0.1% formic acid in acetonitrile. A linear gradient of 15-95% B over 1.0 minute was used. The mass spectrometer was operated in positive ion electrospray mode with multiple reaction monitoring for maximum sensitivity. Sciex Analyst software (version 1.6.3) was used for LC/MS/MS instrument control and acquisition. Compound concentration was determined against a standard curve of internal standard versus compound peak area ratio. Noncompartmental PK parameters were determined using Phoenix 32 software (version 8.2.0.4383) from Certara. Plasma concentrations from the LC/MS/MS analyses, dose, route of administration, and desired units were utilized for PK parameter calculations. […] FIG. 3C provides the concentration over time of compound 30 following in vivo oral administration in the 6 hour and 24 hour assays.
Cmax, Tmax and AUClast were all calculated using a WinNonLin Phoenix 64 v 8.2.0.4383. Using non-compartmental analysis, Tmax, Cmax and AUClast were determined as follows:
Tmax—Time of maximum observed concentration. Cmax—Maximum observed concentration, occurring at time Tmax, as defined above. AUClast—Area under the curve from the time of dosing to the time of the last measurable (positive) concentration (Tlast).

ITK = target: T1, ITK (Homo sapiens, UniProt Q08881); experiment: ITK Degradation HiBiT Assay; assay type: cell-based; details: C-terminal HiBiT-tagged Molt4 cells, 4 hrs incubation; for Dmax: MOLT-4, read-out: HiBiT DMax (%)
T1 construct: Compounds provided herein were assayed in vitro with ITK HiBit cell lines; endogenous in cells; host or cells: Molt4 (ATCC CRL-1552 [sic]), monoclonal clone 1C10
T1 sequence (Q08881 1-620): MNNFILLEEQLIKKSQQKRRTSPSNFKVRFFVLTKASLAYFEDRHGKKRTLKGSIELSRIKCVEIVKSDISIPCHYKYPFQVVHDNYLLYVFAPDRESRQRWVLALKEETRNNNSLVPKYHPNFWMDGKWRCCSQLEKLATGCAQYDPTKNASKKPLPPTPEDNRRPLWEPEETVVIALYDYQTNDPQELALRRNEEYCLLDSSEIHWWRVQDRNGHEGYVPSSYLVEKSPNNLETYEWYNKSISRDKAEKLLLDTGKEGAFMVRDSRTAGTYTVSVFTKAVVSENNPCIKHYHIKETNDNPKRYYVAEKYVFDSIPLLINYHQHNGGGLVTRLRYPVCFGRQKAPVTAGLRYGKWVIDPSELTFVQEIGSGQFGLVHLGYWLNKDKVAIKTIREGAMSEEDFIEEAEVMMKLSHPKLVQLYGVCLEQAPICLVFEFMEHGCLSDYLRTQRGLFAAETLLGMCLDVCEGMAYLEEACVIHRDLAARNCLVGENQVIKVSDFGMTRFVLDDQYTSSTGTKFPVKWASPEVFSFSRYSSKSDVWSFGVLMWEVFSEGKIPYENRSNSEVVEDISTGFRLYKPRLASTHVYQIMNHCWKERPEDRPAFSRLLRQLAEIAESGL

| AUC(0-t) [1] [µM·h] | Cmax [1] [µM] | Tmax [1] [h] | DC50 (ITK) [nM] | Dmax (ITK) [%] | Compound |
| --- | --- | --- | --- | --- | --- |
| 72 | 5.4 | 2 | 2.6 | 79 | CC1(C)CCc2c(-c3cc4ccc(C(=O)N5CCC(CN6CCN(c7ccc(C8CCC(=O)NC8=O)cc7)CC6)CC5)cc4[nH]3)n[nH]c2C1 (stereo not drawn) [Compound 37, 3-(4-(4-((1-(2-(6,6-dimethyl-4,5,6,7-tetrahydro-1H-indazol-3-yl)-1H-indole-6-carbonyl)piperidin-4-yl)methyl)piperazin-1-yl)phenyl)piperidine-2,6-dione] |
| 150 | 11 | 3.3 | 1.5 | 74 | CC1(C)CCc2c(-c3cc4ccc(C(=O)N5CCN(CC6CCN(c7ccc(C8CCC(=O)NC8=O)cc7)CC6)CC5)cc4[nH]3)n[nH]c2C1 (stereo not drawn) [Compound 38, 3-(4-(4-((4-(2-(6,6-dimethyl-4,5,6,7-tetrahydro-1H-indazol-3-yl)-1H-indole-6-carbonyl)piperazin-1-yl)methyl)piperidin-1-yl)phenyl)piperidine-2,6-dione] |
| 3.9 | 0.3 | 6 | 0.09 | 82 | CC1(C)CCc2c(-c3cc4ccc(C(=O)N5CCC(CN6CCC(c7ccc(C8CCC(=O)NC8=O)cc7)CC6)CC5)cc4[nH]3)n[nH]c2C1 (stereo not drawn) [Compound 39, 3-(4-(1-((1-(2-(6,6-dimethyl-4,5,6,7-tetrahydro-1H-indazol-3-yl)-1H-indole-6-carbonyl)piperidin-4-yl)methyl)piperidin-4-yl)phenyl)piperidine-2,6-dione] |

Reference: patent US20230158151A1 (NURIX THERAPEUTICS, INC., priority 2021, published 2023)
